Test results from patent US8466162B2, “5-alkynyl-pyridines” (Boehringer Ingelheim International GmbH, priority 2011, dated 2013).
pEC50, pIC50: −log10 of the molar value. Blank lines part the entries; values can stand above or below the compound they belong to.

What was measured:
PI3Kalpha = target: T1, PI3Kalpha (Homo sapiens, UniProt P42336); assay: Inhibition of PI3Kalpha-induced PIP-2 phosphorylation (filter-binding assay, 33P-ATP); assay type: biochemical; conditions: PI3 Kinase alpha (p85alpha/His-p110alpha), 1 μM ATP; read-out: IC50 PI3Kα
T1 construct: His (N); made in house; host or cells: SF9 insect cells (baculovirus co-infection)

H460 cells = assay: alamarBlue H460 cell assay (antiproliferative/cytotoxicity); assay type: cell-based; conditions: NCI-H460; H460 human lung carcinoma cells
Method in brief: (§1)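 After overnight plating of 3000 cells per well, compounds are applied as ten threefold dilutions (highest final 10 μM) in duplicate for 5-6 days. Viability is then gauged by an 8 h alamarBlue incubation and fluorescence readout, with EC50 calculated from medium-blank-corrected signals.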

MB453 cells = assay: alamarBlue MB453 cell assay (antiproliferative/cytotoxicity); assay type: cell-based; conditions: Homo sapiens; MDA MB 453 breast cancer cell line
Method in brief: as §1

U87 cells = assay: alamarBlue U87 cell assay (antiproliferative/cytotoxicity); assay type: cell-based; conditions: U-87MG human glioblastoma cells
Method in brief: as §1

MCF7 cells = assay: alamarBlue MCF7 cell assay (antiproliferative/cytotoxicity); assay type: cell-based; conditions: MCF7 human breast cancer cell line
Method in brief: as §1

BT474 cells = assay: alamarBlue BT474 cell assay (antiproliferative/cytotoxicity); assay type: cell-based; conditions: BT-474 human breast cancer cell line, 5-6 days incubation
Method in brief: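 Following 5-6 days of treatment across a duplicate 1:3 series (10 μM final maximum), wells received alamarBlue for 8 hours at 37° C before fluorescence measurement; EC50 was fitted. For BT474, 3000 cells were plated in IMDM with 5% FCS.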

T1 sequence (P27986 whole entry): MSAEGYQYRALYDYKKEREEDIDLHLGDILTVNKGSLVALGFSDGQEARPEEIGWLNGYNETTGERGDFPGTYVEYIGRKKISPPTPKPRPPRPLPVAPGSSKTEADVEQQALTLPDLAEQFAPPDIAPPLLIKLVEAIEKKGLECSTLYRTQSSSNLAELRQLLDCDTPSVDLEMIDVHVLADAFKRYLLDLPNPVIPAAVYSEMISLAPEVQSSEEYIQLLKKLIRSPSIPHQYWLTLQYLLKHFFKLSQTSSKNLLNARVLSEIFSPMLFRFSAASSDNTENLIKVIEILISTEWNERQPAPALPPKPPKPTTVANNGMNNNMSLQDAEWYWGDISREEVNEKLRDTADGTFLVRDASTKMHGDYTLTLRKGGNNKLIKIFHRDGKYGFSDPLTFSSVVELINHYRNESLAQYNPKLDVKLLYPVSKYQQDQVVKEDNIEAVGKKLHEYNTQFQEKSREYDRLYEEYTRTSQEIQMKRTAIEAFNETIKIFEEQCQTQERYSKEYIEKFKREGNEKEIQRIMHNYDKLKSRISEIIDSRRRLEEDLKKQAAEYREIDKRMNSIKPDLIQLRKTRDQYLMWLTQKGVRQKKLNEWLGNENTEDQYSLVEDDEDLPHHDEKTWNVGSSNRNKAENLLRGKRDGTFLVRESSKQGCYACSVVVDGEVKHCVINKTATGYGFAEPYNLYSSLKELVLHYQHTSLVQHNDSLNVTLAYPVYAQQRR
T1 sequence (P42336 whole entry): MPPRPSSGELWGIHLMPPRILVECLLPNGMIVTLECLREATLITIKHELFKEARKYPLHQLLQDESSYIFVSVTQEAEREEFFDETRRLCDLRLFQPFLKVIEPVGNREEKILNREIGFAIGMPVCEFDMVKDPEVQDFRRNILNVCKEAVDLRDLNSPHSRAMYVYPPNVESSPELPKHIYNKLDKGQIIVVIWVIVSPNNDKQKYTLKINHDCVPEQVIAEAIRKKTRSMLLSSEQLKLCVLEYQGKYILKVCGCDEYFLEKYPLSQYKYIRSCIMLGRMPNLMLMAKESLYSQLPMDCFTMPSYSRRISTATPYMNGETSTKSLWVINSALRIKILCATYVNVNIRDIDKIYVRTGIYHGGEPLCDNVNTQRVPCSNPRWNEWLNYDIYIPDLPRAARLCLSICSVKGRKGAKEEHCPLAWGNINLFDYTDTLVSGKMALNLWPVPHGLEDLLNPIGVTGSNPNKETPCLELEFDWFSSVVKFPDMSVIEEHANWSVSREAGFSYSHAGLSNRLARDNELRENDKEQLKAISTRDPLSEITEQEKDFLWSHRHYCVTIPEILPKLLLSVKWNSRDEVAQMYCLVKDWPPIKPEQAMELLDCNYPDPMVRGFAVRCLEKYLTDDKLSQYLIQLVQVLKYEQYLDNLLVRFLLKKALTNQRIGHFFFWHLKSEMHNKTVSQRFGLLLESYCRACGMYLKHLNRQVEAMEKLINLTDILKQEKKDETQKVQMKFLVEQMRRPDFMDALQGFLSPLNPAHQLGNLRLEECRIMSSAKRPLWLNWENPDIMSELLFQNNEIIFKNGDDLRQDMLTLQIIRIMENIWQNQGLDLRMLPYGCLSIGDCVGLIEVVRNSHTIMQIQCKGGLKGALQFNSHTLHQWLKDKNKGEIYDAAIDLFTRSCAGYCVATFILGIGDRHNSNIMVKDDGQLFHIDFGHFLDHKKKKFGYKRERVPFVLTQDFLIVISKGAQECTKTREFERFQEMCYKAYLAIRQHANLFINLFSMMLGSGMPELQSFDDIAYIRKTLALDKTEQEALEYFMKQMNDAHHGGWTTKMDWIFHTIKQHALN

SMILES: CCc1ncnc(-c2ccc(CNC(=O)OC(C)(C)C)nc2)c1C#Cc1cnc(C)c(NS(=O)(=O)c2ccccc2C(F)(F)F)c1 [Example 49, (5-{6-Ethyl-5-[6-methyl-5-(2-trifluoromethyl-benzenesulfonylamino)-pyridin-3-ylethynyl]-pyrimidin-4-yl}-pyridin-2-ylmethyl)-carbamic acid tert-butyl ester]
pIC50 (PI3Kalpha): 8.70
pEC50 (H460 cells): 6.92
pEC50 (MB453 cells): 6.77
pEC50 (U87 cells): 6.62
pEC50 (MCF7 cells): 7.24
pEC50 (BT474 cells): 6.68

SMILES: CCc1ncnc(-c2ccccc2)c1C#Cc1cnc(C)c(NS(C)(=O)=O)c1 [Example 52, N-[5-(4-Ethyl-6-phenyl-pyrimidin-5-ylethynyl)-2-methyl-pyridin-3-yl]-methanesulfonamide]
pIC50 (PI3Kalpha): 8.52
pEC50 (H460 cells): 5.92
pEC50 (MB453 cells): 6.34
pEC50 (U87 cells): 5.99
pEC50 (MCF7 cells): 6.81
pEC50 (BT474 cells): 6.28

SMILES: CCc1ncnc(-c2ccccc2F)c1C#Cc1cnc(C)c(NS(C)(=O)=O)c1 [Example 57, N-{5-[4-Ethyl-6-(2-fluoro-phenyl)-pyrimidin-5-ylethynyl]-2-methyl-pyridin-3-yl}-methanesulfonamide]
pIC50 (PI3Kalpha): 8.10
pEC50 (H460 cells): 5.50
pEC50 (MB453 cells): 5.79
pEC50 (U87 cells): 5.57
pEC50 (MCF7 cells): 6.27
pEC50 (BT474 cells): 5.97

SMILES: CCc1ncnc(-c2cccc(F)c2)c1C#Cc1cnc(C)c(NS(C)(=O)=O)c1 [Example 61, N-{5-[4-Ethyl-6-(3-fluoro-phenyl)-pyrimidin-5-ylethynyl]-2-methyl-pyridin-3-yl}-methanesulfonamide]
pIC50 (PI3Kalpha): 9.00
pEC50 (H460 cells): 6.40
pEC50 (MB453 cells): 6.38
pEC50 (U87 cells): 6.49
pEC50 (MCF7 cells): 6.34
pEC50 (BT474 cells): 6.16

SMILES: CCc1ncnc(-c2ccc(F)cc2F)c1C#Cc1cnc(C)c(NS(C)(=O)=O)c1 [Example 63, N-{5-[4-(2,4-Difluoro-phenyl)-6-ethyl-pyrimidin-5-ylethynyl]-2-methyl-pyridin-3-yl}-methanesulfonamide]
pIC50 (PI3Kalpha): 8.40
pEC50 (H460 cells): 5.95
pEC50 (MB453 cells): 5.93
pEC50 (U87 cells): 5.72
pEC50 (MCF7 cells): 6.13
pEC50 (BT474 cells): 5.81

SMILES: CCc1ncnc(-c2cccc(OC(C)C)c2)c1C#Cc1cnc(C)c(NS(C)(=O)=O)c1 [Example 64, N-{5-[4-Ethyl-6-(3-isopropoxy-phenyl)-pyrimidin-5-ylethynyl]-2-methyl-pyridin-3-yl}-methanesulfonamide]
pIC50 (PI3Kalpha): 8.70
pEC50 (H460 cells): 6.22
pEC50 (MB453 cells): 6.21
pEC50 (U87 cells): 6.05
pEC50 (MCF7 cells): 6.51
pEC50 (BT474 cells): 6.21

SMILES: CCc1ncnc(-c2ccnc(C(C)(C)C)c2)c1C#Cc1cnc(C)c(NS(C)(=O)=O)c1 [Example 75, N-{5-[4-(2-tert-Butyl-pyridin-4-yl)-6-ethyl-pyrimidin-5-ylethynyl]-2-methyl-pyridin-3-yl}-methanesulfonamide]
pIC50 (PI3Kalpha): 9.00
pEC50 (H460 cells): 6.70
pEC50 (MB453 cells): 6.84
pEC50 (U87 cells): 6.35
pEC50 (MCF7 cells): 7.10
pEC50 (BT474 cells): 6.77

SMILES: CCc1ncnc(-c2ccnc(C)c2)c1C#Cc1cnc(C)c(NS(=O)(=O)c2ccccc2)c1 [Example 83, N-{5-[4-Ethyl-6-(2-methyl-pyridin-4-yl)-pyrimidin-5-ylethynyl]-2-methyl-pyridin-3-yl}-benzenesulfonamide]
pIC50 (PI3Kalpha): 9.19
pEC50 (H460 cells): 7.24
pEC50 (MB453 cells): 7.07
pEC50 (U87 cells): 6.64
pEC50 (MCF7 cells): 7.54
pEC50 (BT474 cells): 6.99

SMILES: CCc1ncnc(-c2ccnc(C)c2)c1C#Cc1cnc(C)c(NS(=O)(=O)c2ccc(Cl)cc2)c1 [Example 85, 4-Chloro-N-{5-[4-ethyl-6-(2-methyl-pyridin-4-yl)-pyrimidin-5-ylethynyl]-2-methyl-pyridin-3-yl}-benzenesulfonamide]
pIC50 (PI3Kalpha): 9.00
pEC50 (H460 cells): 6.45
pEC50 (MB453 cells): 6.30
pEC50 (U87 cells): 6.01
pEC50 (MCF7 cells): 7.06
pEC50 (BT474 cells): 6.52

Further compounds by rising pIC50 (PI3Kalpha), results first:

pIC50 (PI3Kalpha): 7.70
SMILES: CCc1ncnc(-c2cccc(C(F)(F)F)c2F)c1C#Cc1cnc(C)c(NS(C)(=O)=O)c1 [Example 70, N-{5-[4-Ethyl-6-(2-fluoro-3-trifluoromethyl-phenyl)-pyrimidin-5-ylethynyl]-2-methyl-pyridin-3-yl}-methanesulfonamide]
pEC50 (H460 cells): 5.93
pEC50 (MB453 cells): 5.90
pEC50 (U87 cells): 5.63
pEC50 (MCF7 cells): 6.43
pEC50 (BT474 cells): 5.80

pIC50 (PI3Kalpha): 7.92
SMILES: CCc1ncnc(-c2ccccc2OC)c1C#Cc1cnc(C)c(NS(C)(=O)=O)c1 [Example 62, N-{5-[4-Ethyl-6-(2-methoxy-phenyl)-pyrimidin-5-ylethynyl]-2-methyl-pyridin-3-yl}-methanesulfonamide]
pEC50 (H460 cells): 5.56
pEC50 (MB453 cells): 5.54
pEC50 (U87 cells): 4.60
pEC50 (MCF7 cells): 5.85
pEC50 (BT474 cells): ≤ 5.00

pIC50 (PI3Kalpha): 8.05
SMILES: CCc1ncnc(-c2ccc(OC)cc2F)c1C#Cc1cnc(C)c(NS(C)(=O)=O)c1 [Example 71, N-{5-[4-Ethyl-6-(2-fluoro-4-methoxy-phenyl)-pyrimidin-5-ylethynyl]-2-methyl-pyridin-3-yl}-methanesulfonamide]
pEC50 (H460 cells): 6.17
pEC50 (MB453 cells): 6.25
pEC50 (U87 cells): 5.88
pEC50 (MCF7 cells): 6.41
pEC50 (BT474 cells): 5.99

pIC50 (PI3Kalpha): 8.10
SMILES: CCc1ncnc(-c2ccc(C(=O)N(C)C)cc2F)c1C#Cc1cnc(C)c(NS(C)(=O)=O)c1 [Example 72, 4-[6-Ethyl-5-(5-methanesulfonylamino-6-methyl-pyridin-3-ylethynyl)-pyrimidin-4-yl]-3-fluoro-N,N-dimethyl-benzamide]
pEC50 (H460 cells): 5.52
pEC50 (MB453 cells): 6.13
pEC50 (U87 cells): 5.80
pEC50 (MCF7 cells): 6.17
pEC50 (BT474 cells): 5.71

pIC50 (PI3Kalpha): 8.40
SMILES: CCc1ncnc(-c2ccc(CN)cc2)c1C#Cc1cnc(C)c(NS(C)(=O)=O)c1 [Example 78, N-{5-[4-(4-Aminomethyl-phenyl)-6-ethyl-pyrimidin-5-ylethynyl]-2-methyl-pyridin-3-yl}-methanesulfonamide]
pEC50 (H460 cells): 5.62
pEC50 (MB453 cells): 6.62
pEC50 (U87 cells): 6.05
pEC50 (MCF7 cells): 6.26
pEC50 (BT474 cells): 6.28

pIC50 (PI3Kalpha): 8.52
SMILES: CCc1ncnc(-c2cccc(C#N)c2)c1C#Cc1cnc(C)c(NS(C)(=O)=O)c1 [Example 55, N-{5-[4-(3-Cyano-phenyl)-6-ethyl-pyrimidin-5-ylethynyl]-2-methyl-pyridin-3-yl}-methanesulfonamide]
pEC50 (H460 cells): 6.02
pEC50 (MB453 cells): 6.50
pEC50 (U87 cells): 6.22
pEC50 (MCF7 cells): 6.90
pEC50 (BT474 cells): 6.52

pIC50 (PI3Kalpha): 9.04
SMILES: CCc1ncnc(-c2ccnc(OC)c2)c1C#Cc1cnc(C)c(NS(C)(=O)=O)c1 [Example 76, N-{5-[4-Ethyl-6-(2-methoxy-pyridin-4-yl)-pyrimidin-5-ylethynyl]-2-methyl-pyridin-3-yl}-methanesulfonamide]
pEC50 (H460 cells): 6.68
pEC50 (MB453 cells): 6.83
pEC50 (U87 cells): 6.33
pEC50 (MCF7 cells): 7.03
pEC50 (BT474 cells): 6.45

pIC50 (PI3Kalpha): 9.37
SMILES: CCc1ncnc(-c2ccc(CNC(=O)OC(C)(C)C)nc2)c1C#Cc1cnc(C)c(NS(=O)(=O)c2ccccc2)c1 [Example 50, {5-[5-(5-Benzene-sulfonylamino-6-methyl-pyridin-3-ylethynyl)-6-ethyl-pyrimidin-4-yl]-pyridin-2-ylmethyl}-carbamic acid tert-butyl ester]
pEC50 (H460 cells): 6.98
pEC50 (MB453 cells): 6.94
pEC50 (U87 cells): 6.98
pEC50 (MCF7 cells): 7.57
pEC50 (BT474 cells): 6.99
